From US4714619A, “Aminomalonyl alanine compounds as dietary sweeteners” (priority 1986, dated 1987)
“Also recorded” adds a separate entry of the source. Like-named read-outs stand apart in the source and are kept apart here. Where a SMILES comes first, the peptide text is derived from it.

Key:
[1] = Acute oral toxicity testing; assay type: in vivo, Swiss male mice
Description: The isopropyl ester was evaluated for acute oral toxicity in Swiss male mice. The testing parameters were as follows: each test group contained six mice (20-30 grams each); the isopropyl ester was administered in an aqueous solution as a single oral dose of 100 mg/kg and 300 mg/kg; two solvent controls were also administered; the mice were again given food two hours after sample administration.
Body weights were measured on day -3, 0, +7 and +14. Physiological parameters were examined the entire first day, then three times a day through the first week and twice a day for the second week. Blood serum analyses for urea nitrogen and alanine aminotransferase activities were measured on day -3 and day +14. On day 14, a gross necropsy was performed on each mouse.
Blood samples were collected from the tail vein for biochemical testing of serum samples. This procedure virtually eliminated hemolyzed samples.

[2] = Stability in aqueous solution (hplc, ambient temperature); assay type: physicochemical
Description: Stability was examined in aqueous solution at various pHs. Solutions (1% w/v) were prepared in 0.05M phosphate buffer adjusted to pH 7.4 and pH 3.5. Storage at ambient temperature over 36 days was monitored by hplc analysis (waters radial-pak reverse phase C-8 column, 25% CH3 CN, 0.05% TFA/H2 O eluant, 210 nm U.V. detection). Aspartame was examined similarly for comparison purposes.

[3] = Comparative taste test, D- versus L-configuration (Table 2, FIG. 3); design: Sweet? (average score) / Bitter? (average score) / Salty? (average score) / Off Taste? (average score) / After Taste? (average score): scale not given here
Description: The compounds were dissolved in distilled water at the concentrations specified in Table 2. Solutions were made up and kept overnight in a refrigerator. The following day, they were poured into individual graduated plastic cups (10 ml per cup) and allowed to warm to room temperature. A taste panel was convened and testing begun that same day. Tasting and evaluation was done by the standard protocol developed by Dr. Robert Gesteland of Taste and Smell Consulting Group, Inc.
The first solution tasted (reference standard for the panel) was 0.25M sucrose. Other solutions were tasted in radomized fashion. The random order was arrived at as follows:
i. An ordered list of the compounds and concentrations was prepared (26 solutions in all).
ii. 0.25M sucrose was designated as 1.
iii. A standard table of random numbers was used in which the numbers were grouped as two-digit numbers. A point in the table was chosen at random (blind pointing). The first solution in the list was given the first random number in the sequence (read right-to-left, up-to-down) which is between 2 and 26. The second solution in the list was given the next random number in the sequence between 2 and 26, etc. Repeat numbers were ignored.
iv. Solutions were then labeled A (for number 1) B (for random number 2), C-Z.
v. Panelists were instructed to taste the solutions in alphabetical order.
With the assistance of Taste and Smell Consulting Group, Inc., taste panel members were trained adn tested for their ability to discriminate sucrose solutions of varying concentrations. In summary it may be stated that all 9 panel members had acceptble correlation scores. Their results were in good agreement with those which have been previously reported in siilar types of studies. For the test series the correlations for each panelist for sucrose and aspartame were acceptable as were the overall results obtained by averaging individual scores. The results of the taste panel are set forth in Table 2 wherein the parenthetical figures represent the standard error values for the number above.

[4] = Taste panel (Table 1, FIG. 2); settings: for After Taste? (average score) / Bitter? (average score) / Off Taste? (average score) / Pleasant? (average score) / Salty? (average score) / Sweet? (average score): normalized to 100; for sweetness potency (reciprocal of concentration required for a score of 50): sucrose=1.0, weight scale
five Salmonella strains = test: Ames/Salmonella mutagenicity assay; assay type: cell-based; settings: 0.3-3000 ug/plate, with and without S9; toxicity at the two highest doses
Description: The isopropyl ester was tested for mutuagenic potential in the Ames assay employing: (1) five Salmonella strains which detect frameshift mutagens or base-pair substitution mutagens, (2) both the presence and absence of mammalian S9 microsomal liver fraction as the metabolic activator, which differentiate promutagens from direct-acting mutagens, (3) five dose levels (3000, 300, 30, 3, 0.3 ug/plate), and (4) three plates per dose. The compound was also tested for toxicity, with and without S9 activation, at the two highest doses. […] Positive controls and spontaneous background revertants were within acceptable ranges.

[5] = neonatal mice; cited from earlier work
[6] = cited from earlier work
[7] = monkeys; cited from earlier work
[8] = single oral dose 100 and 300 mg/kg, 14 days
[9] = 0.05m phosphate buffer, pH 3.5, 36 days, ambient temperature, read-out: degradation

## CC(C)OC(=O)[C@@H](C)NC(=O)C(N)C(=O)O (mixture of isomers) [Compound (8), DL-Aminomalonyl-D-Alanine Isopropyl Ester]
[1]; day 14, 100 and 300 mg/kg oral
  gross necropsy: No toxic effects were detected
[1]; from serum urea nitrogen and alanine aminotransferase, 100 and 300 mg/kg oral
  kidney and liver toxicity: absence of kidney and liver toxicity
[1]; post-study samples, 100 or 300 mg/kg oral
  serum urea nitrogen and alanine aminotransferase activity: Neither elevated serum urea nitrogen nor elevated alanine aminotransferase activity were detected
[1]; single oral dose 100 and 300 mg/kg
  behavioral or pharmacological effects: no behavioral or pharmacological effects were observed
[1]; single oral dose 100 and 300 mg/kg, 14-day study
  body weights: normal
[1]; [8]
  acute oral toxicity: no toxic effect; also recorded: nontoxic at all doses tested
  eating or drinking: no excessive eating or drinking
[2]; [9]
  degraded at 864 h: < 5%
[2]; 0.05m phosphate buffer, pH 7.4 buffer, 36 days, ambient temperature, read-out: degradation
  degraded at 864 h: 70%
[2]; pH 3.5, 36 days
  improvement in stability relative to aspartame: ten fold improvement in stability
[3]
  sweet taste (words): sweet
[3]; 0.0431 Millimolar
  After Taste? (average score): 0
  Bitter? (average score): 1
  Off Taste? (average score): 2
  Pleasant? (average score): 15
  Salty? (average score): 1
  Sweet? (average score): 2
[3]; 0.4307 Millimolar
  After Taste? (average score): 7
  Bitter? (average score): 12
  Off Taste? (average score): 8
  Pleasant? (average score): 10
  Salty? (average score): 11
  Sweet? (average score): 1
[3]; 4.3066 Millimolar
  After Taste? (average score): 5
  Bitter? (average score): 0
  Off Taste? (average score): 3
  Pleasant? (average score): 24
  Salty? (average score): 12
  Sweet? (average score): 28
[4]; 0.8621 Millimolar
  After Taste? (average score): 4
  Bitter? (average score): 7
  Off Taste? (average score): 13
  Pleasant? (average score): -11
  Salty? (average score): 21
  Sweet? (average score): 4
[4]; 3.0172 Millimolar
  After Taste? (average score): 6
  Bitter? (average score): 3
  Off Taste? (average score): 2
  Pleasant? (average score): 13
  Salty? (average score): 5
  Sweet? (average score): 32
[4]; 9.0517 Millimolar
  After Taste? (average score): 4
  Bitter? (average score): 1
  Off Taste? (average score): 3
  Pleasant? (average score): 34
  Salty? (average score): 3
  Sweet? (average score): 61
[4]; compared to saccharin
  aftertaste / side tastes: does not possess a "metallic" aftertaste, and there are virtually no detracting side tastes
[4]
  sweetness potency (reciprocal of concentration required for a score of 50): 58
[4]; taste panel
  onset and decay of sweet taste: rapid onset and a rapid decay of sweet taste
  taste quality: uncommon sucrose-like sweet taste that is free of detracting side and after tastes; also recorded: sweet and pleasant
[4]; weight basis
  sweetness relative to aspartame: about half as sweet as aspartame
  times sweeter than sucrose: 58 times
Five Salmonella strains
  mutagenic potential and toxicity in Ames assay: neither mutagenic potential nor toxicity

## N[C@@H](CC(=O)O)C(=O)O [aspartic acid]
[5]
  brain lesions: causes brain lesions in neonatal mice

## COC(=O)[C@H](Cc1ccccc1)NC(=O)[C@@H](N)CC(=O)O [Aspartame, methyl ester of L-α-Aspartyl-L-phenylalanine] (HELM PEPTIDE1{D.F.[CO[*:1]]}$$$$V2.0)
[2]; [9]
  degraded at 864 h: > 50%
[2]; 0.05m phosphate buffer, pH 7.4 buffer, 9 days, ambient temperature, read-out: degradation
  degraded at 216 h: 100%
[3]; 0.3398 Millimolar
  After Taste? (average score): 1
  Bitter? (average score): 1
  Off Taste? (average score): 1
  Pleasant? (average score): 16
  Salty? (average score): 0
  Sweet? (average score): 9
[3]; 1.0194 Millimolar
  After Taste? (average score): 7
  Bitter? (average score): 3
  Off Taste? (average score): 6
  Pleasant? (average score): 8
  Salty? (average score): 10
  Sweet? (average score): 27
[3]; 3.3979 Millimolar
  After Taste? (average score): 16
  Bitter? (average score): 2
  Off Taste? (average score): 12
  Pleasant? (average score): 22
  Salty? (average score): 3
  Sweet? (average score): 66
[3]; 10.1937 Millimolar
  After Taste? (average score): 22
  Bitter? (average score): 5
  Off Taste? (average score): 17
  Pleasant? (average score): 12
  Salty? (average score): 0
  Sweet? (average score): 64
[4]; 0.3392 Millimolar
  After Taste? (average score): 1
  Bitter? (average score): 0
  Off Taste? (average score): 1
  Pleasant? (average score): 4
  Salty? (average score): 1
  Sweet? (average score): 15
[4]; 1.0194 Millimolar
  After Taste? (average score): 2
  Bitter? (average score): 0
  Off Taste? (average score): 4
  Pleasant? (average score): 15
  Salty? (average score): 3
  Sweet? (average score): 27
[4]; 3.3979 Millimolar
  After Taste? (average score): 26
  Bitter? (average score): 4
  Off Taste? (average score): 2
  Pleasant? (average score): 26
  Salty? (average score): 2
  Sweet? (average score): 68
[4]; 10.1937 Millimolar
  After Taste? (average score): 34
  Bitter? (average score): 0
  Off Taste? (average score): 4
  Pleasant? (average score): 9
  Salty? (average score): 1
  Sweet? (average score): 83
[4]
  sweetness potency (reciprocal of concentration required for a score of 50): 126
[4]; taste panel
  taste quality: sweet and pleasant

## N[C@@H](Cc1ccccc1)C(=O)O [phenylalanine]
[6]; in vivo
  behavioral changes and brain chemistry: induce behavioral changes, and alter brain chemistry
[6]; pregnant women with phenylketonuria
  birth defects: produce birth defects in pregnant women with phenylketonuria
[7]
  grand mal-type seizures: reported to induce grand mal-type seizures in monkeys
